Source: patent US4737497A, “Bis-dioxopiperazine derivatives, antitumor agents comprising them and compositions containing them” (Zenyaki Kogyo Kabushiki Kaisha, priority 1983, dated 1988)
≈ marks a conversion by molar mass, not a printed value.

Assays:
[1] = tested on: Lewis lung carcinoma; experiment: Growth inhibition test on Lewis lung carcinoma; type: in vivo, mice (BDF1 (C57BL/6×DBA/2)); settings: Mus musculus, po, 480 h, orally, once a day for 8 days, tumor weight on 20th day, read-out: G.I. (growth inhibition); for inhibition in vivo at 60 mg/kg: 60 mg/kg daily; for inhibition in vivo at 40 mg/kg: 40 mg/kg daily
Description: The treated group to which the compound of the present invention was administered consisted of seven mice, while the control group consisted of ten mice. Six weeks old male mice [BDF1 (C57BL/6×DBA/2), 25±2 g of body weight] were employed as host animals.
Tumor cells (5×10^5) of Lewis lung carcinoma were transplanted subcutaneously in inguinal region of each mouse. The treatment began one day after the transplantation and the prescribed dose of each test compound was administered orally to the mice once a day for 8 days.
On the 20th day after the transplantation, the tumors of all the mice were excised and weighed. Antitumor activity of the test compound was evaluated by the rate of growth inhibition (G.I.%) which was calculated with the following formula. [formula] T: mean tumor weight of treated mice C: mean tumor weight of control mice

[2] = tested on: B-16 melanoma; experiment: Growth inhibition test on B-16 melanoma; type: in vivo, mice (BDF1 (C57BL/6×DBA/2)); settings: Mus musculus, B16, po, 480 h, orally, once a day for 8 days, tumor weight on 20th day, read-out: G.I. (growth inhibition); for inhibition in vivo at 60 mg/kg: 60 mg/kg daily; for inhibition in vivo at 40 mg/kg: 40 mg/kg daily; for inhibition in vivo at 20 mg/kg: 20 mg/kg daily
Description: The treated group to which the compound of the present invention was administered consisted of seven mice, while the control group consisted of ten mice. Six weeks old male mice [BDF1 (C57BL/6×DBA/2), 25+2 g of body weight] were employed as host animals.
Tumor cells (5×10^5) of B-16 melanoma were transplanted subcutaneously in inguinal region of each mouse. The treatment began one day after the transplantation and the prescribed dose of each test compound was administered orally to the mice once a day for 8 days.
On the 20th day after the transplantation, the tumors of all the mice were excised and weighed. Antitumor activity of the test compound was evaluated by the rate of growth inhibition (G.I.%) which was calculated in the same manner as used in the animal test on Lewis lung carcinoma.

[3] = tested on: Colon adenocarcinoma No. 38; experiment: Growth inhibition test on Colon adenocarcinoma No. 38; type: in vivo, mice (BDF1); settings: orally, once a day for 8 days, tumor weight on 30th day
Description: The treated group to which the compound of the present invention was administered consisted of seven mice, while the control group consisted of ten mice. Six weeks old male mice [BDF1 (G57BL/6×DBA/2), 25±2 g of body weight] were employed as hosts animals.
Tumor cells (40 mg of fragment) of Colon adenocarcinoma No. 38 were transplanted subcutaneously in inguinal region of each mouse. The treatment began one day after the transplantation and the prescribed dose of each test compound was administered orally to the mice once a day for 8 days.
On the 30th day after the transplantaion, the tumors of all the mice were excised and weighed. Antitumor activity of the test compound was evaluated by the rate of growth inhibition (G.I.%) which was calculated in the same manner as used in the animal test on Lewis lung carcinoma.

[4] = tested on: Sarcoma 37; experiment: Growth inhibition test on Sarcoma 37; type: in vivo, mice (K-M); settings: once a day for 10 days; for G.I. (growth inhibition): tumor weight on 12th day; for ED50: Mus musculus, 288 h
Description: The treated group to which the compound of the present invention was administered consisted of eight mice, while the control group consisted of sixteen mice. Four weeks old female mice (K-M, 20±2 g of body weight) were employed as host animals.
Tumor cells (0.2 ml of 1:5 suspension) of Sarcoma 37 were transplanted subcutaneously in the flank of each mouse. The treatment began one day after the transplantation and the prescribed dose (1.56-50 mg/kg) of dl-1,2-bis(4-morpholinomethyl-3,5-dioxopiperazin-1-yl)-propane was administered intraperitoneally (i.p.) or orally (p.o.) to the mice once a day for 10 days.
(§1) On the 12th day after the transplantation, the tumors of all the mice were excised and weighed. Antitumor activity of the test compound was evaluated by the rate of growth inhibition (G.I.%) which was calculated in the same manner as used in the animal test on Lewis lung carcinoma.

[5] = tested on: Hepatoma 22; experiment: Growth inhibition test on Hepatoma 22; type: in vivo, mice (K-M); settings: 25 mg/kg daily, orally, once a day for 9 days; tumor weight on 12th day
Description: The treated group to which the compound of the present invention was administered consisted of ten mice, while the control group consisted of twenty mice. Four weeks old female mice (K-M, 20±2 g of body weight) were employed as host animals.
Tumor cells (a 2 mm^3 fragment) of Hepatoma 22 were transplanted subcutaneously in the flank of each mouse. The treatment began one day after the transplantation and the prescribed dose of the test compound was administered orally to the mice once a day for 9 days.
as §1

[6] = Animal test on acute toxicity; settings: mouse, in vivo, ip; intraperitoneal, male ddY mice, observed 14 days, Litchfield-Wilcoxon method
Description: The test group to which the compound of the present invention was administered consisted of ten mice. Five weeks old male mice (ddY, 23±2 g of body weight) were employed as test animals.

[7] = Animal test on subacute toxicity; settings: mouse, in vivo, ip; intraperitoneal, once a day for 8 days, female K-M mice, observed 14 days, Bliss-Finney method
Description: The test group to which the compound of the present invention was administered consisted of ten mice, while the control group consisted of ten mice. Four weeks old female mice (K-M, 20±2 g of body weight) were employed as test animals.
LD50 value of the subacute toxicity was determined by the Bliss-Finney statistical method.

[8] = Solubility in water; type: physicochemical; settings: 25° C.

In the case of `CC(CN1CC(=O)N(CN2CCOCC2)C(=O)C1)N1CC(=O)N(CN2CCOCC2)C(=O)C1` (racemic) [dl-1,2-Bis(4-morpholinomethyl-3,5-dioxopiperazin-1-yl)-propane], the inhibition in vivo at 60 mg/kg [1] is reported as 89.3%, the inhibition in vivo at 60 mg/kg [2] is reported as 93.8% and the “G.I. (growth inhibition)” value ([3]; 60 mg/kg daily) is reported as 91.6%. For the same compound, the “G.I. (growth inhibition)” value ([4]; 1.56 mg/kg daily, i.p.) was 33.2%, the “G.I. (growth inhibition)” value ([4]; 3.12 mg/kg daily, i.p.) was 56.1% and the “G.I. (growth inhibition)” value ([4]; 3.12 mg/kg daily, p.o.) was 39.3%. The “G.I. (growth inhibition)” value ([4]; 6.25 mg/kg daily, i.p.) was 72.7%, the “G.I. (growth inhibition)” value ([4]; 6.25 mg/kg daily, p.o.) was 68.8% and the “G.I. (growth inhibition)” value ([4]; 12.5 mg/kg daily, i.p.) was 82.4%. For the same compound, the “G.I. (growth inhibition)” value ([4]; 12.5 mg/kg daily, p.o.) was 94.2%, the “G.I. (growth inhibition)” value ([4]; 25 mg/kg daily, i.p.) was 94.6% and the “G.I. (growth inhibition)” value ([4]; 25 mg/kg daily, p.o.) was 100%. The “G.I. (growth inhibition)” value ([4]; 50 mg/kg daily, i.p.) was 100%, the ED50 ([4]; ip) was 3.1 mg/kg and the ED50 ([4]; po) was 4.3 mg/kg. The “G.I. (growth inhibition)” value [5] was 42.7%, the LD50 at 336 h [6] was 255 mg/kg and the LD50 at 336 h [7] was 178 mg/kg. It also gave a solubility [8] of 20 mg/mL (≈ 42.9 mM).
Work on `CC(CN1CC(=O)N(CN2CCSCC2)C(=O)C1)N1CC(=O)N(CN2CCSCC2)C(=O)C1` (racemic) [dl-1,2-Bis(4-thiomorpholinomethyl-3,5-dioxopiperazin-1-yl)-propane] yielded an inhibition in vivo at 40 mg/kg [2] of 77.5% and an LD50 at 336 h [6] of 330 mg/kg.
Compound `CC1CC(C)CN(CN2C(=O)CN(CC(C)N3CC(=O)N(CN4CC(C)CC(C)C4)C(=O)C3)CC2=O)C1` (racemic) [dl-1,2-Bis[4-(3,5-dimethylpiperidinomethyl)-3,5-dioxopiperazin-1-yl]-propan] has an inhibition in vivo at 60 mg/kg [1] of 77.4% and an inhibition in vivo at 60 mg/kg [2] of 91.2%.
For `CC(CN1CC(=O)N(CN2CCN(C)CC2)C(=O)C1)N1CC(=O)N(CN2CCN(C)CC2)C(=O)C1` (racemic) [dl-1,2-Bis[4-(N-methylpiperazinomethyl)-3,5-dioxopiperazin-1-yl]-propane], the inhibition in vivo at 60 mg/kg [1] was 53.5% and the LD50 at 336 h [6] was 300 to 400 mg/kg.
`CC(CN1CC(=O)N(CN2CCN(c3ccccc3)CC2)C(=O)C1)N1CC(=O)N(CN2CCN(c3ccccc3)CC2)C(=O)C1` (racemic) [dl-1,2-Bis[4-(N-phenylpiperazinomethyl)-3,5-dioxopiperazin-1-yl]-propane] showed an inhibition in vivo at 40 mg/kg [1] of 89%, an inhibition in vivo at 20 mg/kg [2] of 71% and an LD50 at 336 h [6] of 100 mg/kg.
In the case of `CC(CN1CC(=O)N(CN2CCOCC2)C(=O)C1)N1CC(=O)NC(=O)C1` (racemic) [dl-1-(4-Morpholinomethyl-3,5-dioxopiperazin-1-yl)-2-(3,5-dioxopiperazin-1-yl)-propane], the inhibition in vivo at 40 mg/kg [1] is reported as 83.9%, the inhibition in vivo at 40 mg/kg [2] is reported as 76.1% and the “G.I. (growth inhibition)” value ([3]; 40 mg/kg daily) is reported as 74.1%.
For `CC(CN1CC(=O)N(CN2CCN(c3ccccc3)CC2)C(=O)C1)N1CC(=O)NC(=O)C1` (racemic) [dl-1-[4-(N-Phenylpiperazinomethyl)-3,5-dioxopiperazin-1-yl]-2-(3,5-dioxopiperazin-1-yl)-propane], the inhibition in vivo at 40 mg/kg [1] was 76.2%, the inhibition in vivo at 20 mg/kg [2] was 60.8% and the “G.I. (growth inhibition)” value ([3]; 40 mg/kg daily) was 93.5%. It also gave an LD50 at 336 h [6] of over 350 mg/kg.
With `O=C1CN(CCN2CC(=O)N(CN3CCSCC3)C(=O)C2)CC(=O)N1CN1CCSCC1` [1,2-Bis(4-thiomorpholinomethyl-3,5-dioxopiperazin-1-yl)-ethane] the inhibition in vivo at 60 mg/kg [2] was 73.5%.
For `CC1CC(C)CN(CN2C(=O)CN(CCN3CC(=O)N(CN4CC(C)CC(C)C4)C(=O)C3)CC2=O)C1` (centres unmarked) [1,2-Bis[4-(3,5-dimethylpiperidinomethyl)-3,5-dioxopiperazin-1-yl]-ethane], the inhibition in vivo at 60 mg/kg [1] was 67.2%, the inhibition in vivo at 60 mg/kg [2] was 68.9% and the “G.I. (growth inhibition)” value ([3]; 60 mg/kg daily) was 83.1%. It also gave an LD50 at 336 h [6] of 400 to 500 mg/kg.
In the case of `O=C1CN(CCN2CC(=O)N(CN3CCN(c4ccccc4)CC3)C(=O)C2)CC(=O)N1CN1CCN(c2ccccc2)CC1` [1,2-Bis[4-(N-phenylpiperazinomethyl)-3,5-dioxopiperazin-1-yl]-ethane], the inhibition in vivo at 60 mg/kg [1] is reported as 78.9%, the inhibition in vivo at 60 mg/kg [2] is reported as 91.9% and the “G.I. (growth inhibition)” value ([3]; 60 mg/kg daily) is reported as 97.9%. The LD50 at 336 h [6] was 200 to 300 mg/kg.
With `O=C1CN(CCN2CC(=O)N(CN3CCOCC3)C(=O)C2)CC(=O)N1CN1CCOCC1` [1,2-bis(4-morpholinomethyl-3,5-dioxopiperazin-1-yl)-ethane, reference compound] the inhibition in vivo at 60 mg/kg [1] was 22.6%, the inhibition in vivo at 60 mg/kg [2] was 48.9% and the “G.I. (growth inhibition)” value ([3]; 60 mg/kg daily) was 72.8%. For the same compound, the “G.I. (growth inhibition)” value [5] was 12.9%, the LD50 at 336 h [6] was 280 mg/kg and the LD50 at 336 h [7] was 59.3 mg/kg.
